This note sets out measurements from patent US20220041582A1, “ISOXAZOLINE COMPOUNDS FOR CONTROLLING INVERTEBRATE PESTS” (FMC Corporation, priority 2018, published 2022).

What all share (type): in vivo
Assay [1] deals with green peach aphid (Myzus persicae (Sulzer)). Put plainly: Test E: control of green peach aphid through contact and/or systemic means. Conditions: 144 h. The method, then:
(§1) Formulation and Spray Methodology for Tests A-H
(§2) Test compounds were formulated using a solution containing 10% acetone, 90% water and 300 ppm Activator 90® non-ionic surfactant (Loveland Products, Loveland, Colo., USA). The formulated compounds were applied in 1 mL of liquid through an atomizer nozzle positioned 1.27 cm (0.5 inches) above the top of each test unit. Test compounds were sprayed at the rates indicated, and each test was replicated three times.
For evaluating control of green peach aphid (Myzus persicae (Sulzer)) through contact and/or systemic means, the test unit consisted of a small open container with a 12-15-day-old radish plant inside. This was pre-infested by placing on a leaf of the test plant 30-40 aphids on a piece of leaf excised from a culture plant (cut-leaf method). The aphids moved onto the test plant as the leaf piece desiccated. After pre-infestation, the soil of the test unit was covered with a layer of sand.
Test compounds were formulated and sprayed at 250, 50 and 10 ppm. After spraying of the formulated test compound, each test unit was allowed to dry for 1 hour and then a black, screened cap was placed on top. The test units were held for 6 days in a growth chamber at 19-21° C. and 50-70% relative humidity. Each test unit was then visually assessed for insect mortality.

The subject of assay [2] is cotton melon aphid (Aphis gossypii (Glover)). The experiment in a line: Test F: control of cotton melon aphid through contact and/or systemic means. Conditions: 144 h. The method, then: as §1, §2
[…] This was pre-infested with 30-40 insects on a piece of leaf according to the cut-leaf method, and the soil of the test unit was covered with a layer of sand.
Test compounds were formulated and sprayed at 250, 50 and 10 ppm. After spraying, the test units were maintained in a growth chamber for 6 days at 19° C. and 70% relative humidity. Each test unit was then visually assessed for insect mortality.

Assay [3] deals with sweetpotato whitefly (Bemisia tabaci (Gennadius)). Put plainly: Test G: control of sweetpotato whitefly through contact and/or systemic means. Conditions: 312 h. As to the method:
as §1, §2
For evaluating control of the sweetpotato whitefly (Bemisia tabaci (Gennadius)) through contact and/or systemic means, the test unit consisted of a small open container with a 12-14-day-old cotton plant inside. Prior to the spray application, both cotyledons were removed from the plant, leaving one true leaf for the assay. Adult whiteflies were allowed to lay eggs on the plant and then were removed from the test unit. Cotton plants infested with at least 15 eggs were submitted to the test for spraying.
Test compounds were formulated and sprayed at 250, 50 and 10 ppm. After spraying, the test units were allowed to dry for 1 hour. The cylinders were then removed, and the units were taken to a growth chamber and held for 13 days at 28° C. and 50-70% relative humidity. Each test unit was then visually assessed for insect mortality.

Where [4] appears, read: 50 ppm spray, 6 days, read-out: mortality.
Where [5] appears, read: 10 ppm spray, 6 days, read-out: mortality.

Read-outs that look alike come from different tables or passages of the source. Where only a bound is given, the exact number is not on record here.

Regarding `O=C(NC1CC1)c1ccc(C2=NOC(c3cccc(C(F)(F)F)c3)(C(F)(F)F)C2)c2ccncc12` (stereo not drawn) [Compound 16, N-cyclopropyl-5-[4,5-dihydro-5-(trifluoromethyl)-5-[3-(trifluoromethyl)phenyl]-3-isoxazolyl]-8-isoquinolinecarboxamide], in assay [1] (setting [4]), the mortality at 50 ppm was not below 80%.
`C[C@@H](NC(=O)c1ccc(C2=NOC(c3cc(Cl)c(F)c(Cl)c3)(C(F)(F)F)C2)c2ccncc12)C(=O)NCC(F)(F)F` (stereo partly drawn) [Compound 56]: the figures for the mortality at 50 ppm in assay [2], in assay [3] and in assay [1] were not below 80%, not below 50% and not below 80%, respectively.
Consider `O=C(NCC1CC1)c1ccc(C2=NOC(c3cccc(C(F)(F)F)c3)(C(F)(F)F)C2)c2ccncc12` (racemic) [Compound 17, N-(cyclopropylmethyl)-5-[4,5-dihydro-5-(trifluoromethyl)-5-[3-(trifluoromethyl)phenyl]-3-isoxazolyl]-8-isoquinolinecarboxamide], for which the mortality at 10 ppm in assay [2] (setting [5]) and in assay [1] (setting [5]) was not below 80% throughout. In addition, the mortality at 50 ppm in assay [2] (setting [4]) and in assay [1] (setting [4]) was not below 80% in each case.
In the case of `CNC(=O)c1ccc(C2=NOC(c3cc(Cl)c(F)c(Cl)c3)(C(F)(F)F)C2)c2ccncc12` (stereo not drawn) [Compound 27], the mortality at 50 ppm in assay [2] and in assay [1] was not below 80% in each case.
For the molecule `CCNC(=O)c1ccc(C2=NOC(c3cc(Cl)c(F)c(Cl)c3)(C(F)(F)F)C2)c2ccncc12` (stereo not drawn) [Compound 46, 5-[5-(3,5-dichloro-4-fluorophenyl)-4,5-dihydro-5-(trifluoromethyl)-3-isoxazolyl]-N-ethyl-8 soquinolinecarboxamide], in assay [2], the mortality at 10 ppm is not below 80% and the mortality at 50 ppm was not below 80%.
With `CSC[C@@H](C)NC(=O)c1ccc(C2=NOC(c3cc(Cl)c(F)c(Cl)c3)(C(F)(F)F)C2)c2ccncc12` (stereo partly drawn) [Compound 8], the mortality at 50 ppm in assay [2] is not below 80%.
In the case of `CS(=O)(=O)CCNC(=O)c1ccc(C2=NOC(c3cccc(C(F)(F)F)c3)(C(F)(F)F)C2)c2ccncc12` (stereo not drawn) [Compound 19], the mortality at 50 ppm in assay [2] (setting [4]) is not below 80%; in assay [3] (50 ppm spray, 13 days, read-out: mortality) it was not below 50%.
Turning to `C[C@@H](NC(=O)c1ccc(C2=NOC(c3cccc(C(F)(F)F)c3)(C(F)(F)F)C2)c2ccncc12)C(N)=O` (stereo partly drawn) [Compound 25], the mortality at 50 ppm in assay [2] (setting [4]) is not below 80%.
Take `C[C@@H](NC(=O)c1ccc(C2=NOC(c3cc(Cl)cc(C(F)(F)F)c3)(C(F)(F)F)C2)c2ccncc12)C(N)=O` (stereo partly drawn) [Compound 40]: the mortality at 50 ppm in assay [2] was not below 80%.
On the same count and under the same terms, to `CS(=O)(=O)CCNC(=O)c1ccc(C2=NOC(c3cc(Cl)c(F)c(Cl)c3)(C(F)(F)F)C2)c2ccncc12` (stereo not drawn) [Compound 12] belongs not below 80%.
Take `C[S+]([O-])CCNC(=O)c1ccc(C2=NOC(c3cccc(C(F)(F)F)c3)(C(F)(F)F)C2)c2ccncc12` (stereo not drawn) [Compound 30]: in assay [2] (setting [4]), the mortality at 50 ppm was not below 80%.
Take `O=C(NCC1CCCO1)c1ccc(C2=NOC(c3cc(Cl)c(F)c(Cl)c3)(C(F)(F)F)C2)c2ccncc12` (stereo not drawn) [Compound 26]: the mortality at 50 ppm in assay [2] is not below 80%; in assay [3], not below 50%.
On to `O=C(NCC1CC1)c1ccc(C2=NOC(c3cc(Cl)c(F)c(Cl)c3)(C(F)(F)F)C2)c2ccncc12` (stereo not drawn) [Compound 3, N-(cyclopropylmethyl)-5-[5-(3,5-dichloro-4-fluorophenyl)-4,5-dihydro-5-(trifluoromethyl)-3-isoxazolyl]-8-isoquinolinecarboxamide], for which the mortality at 10 ppm was not below 80% in assay [2], not below 50% in assay [3] and not below 80% in assay [1]. Further, the mortality at 50 ppm in assay [2] was not below 80%; in assay [3], not below 50%; in assay [1], not below 80%.
